# In patent publication US12285393B2, “Roles of modulators of intersectin-Cdc42 signaling in Alzheimer's disease” (priority 2017, dated 2025):
# Assays:
# microglia = assay: Pro-inflammatory microglia in the hippocampus (Iba-1); type: in vivo; conditions: WT mice; 20× objective lens
# Protocol: (§1) Tissue preparation: Mice were deeply anesthetized with 3% isoflourane vapor and euthanized by cervical dislocation. Brain tissues were harvested, and then either snap frozen for Western Blot analysis or fixed in 4% paraformaldehyde overnight for immunohistochemistry (IHC) analysis. Fixed brain tissues were washed with phosphate-buffered saline (PBS) and moved to cryoprotectant (30% sucrose in PBS) at 4° C. Once sunk in the cryoprotectant, brain tissues were subsequently embedded in the optimal cutting temperature compound (O.C.T) and rapidly frozen with chilled isopentane. Then, 8˜30 μm thickness of cryostate section was applied to brain tissues, 30 μm sections were immersed in the PBS and store at 4° C. refrigerator, and 8 μm sections were store at −80° C. refrigerator.
# (§2) Immunohistochemistry analysis: All sections were first treated with 1% H2O2 in PBS for 20 minutes at room temperature, then incubated with 0.5% Triton X-100 for 30 minutes and blocked for 30 minutes at room temperature. Brain tissues were incubated with primary antibodies from Table 6, below. […] All sections were eventually dehydrated in 95% ethanol and mounted on coverslips for light microscopy (Carl Zeiss, Thornwood, New York, United States of America).
# (§3) Methods: Brain tissues collected from each treatment group of mice from the behavior studies were subjected to pathological analysis (e.g., immunohistochemical analysis, as described above in Example 5). […] Growth cone dynamics and spine motility were either recorded with time-lapse microscopy or stained by using the fluorescein isothiocyanate (FITC) or Cyanine Dye 3 (Cy3)-conjugated Phalloidin.
# [1] = system: microtubule-associated tau; assay: Tau phosphorylation in the dentate gyrus (antibody AT8 immunostaining); type: in vivo, mice
# Protocol: as §1, §2, §3
# [2] = Solubility profile by optical density; type: physicochemical; conditions: for solubility: in DM19
# Source text: ZCL278, ZCL279, and ZCL367 were all tested for solubility in the 5 FDA approved solvents to be used in humans. […] Results are shown below in Tables 2-4. Ratio refers to the optical density of the solution comprising the modulator compound/the optical density of the carder/solvent alone.
# amyloid deposits = assay: Amyloid deposition in the hippocampus (antibody 4G8 immunostaining); type: in vivo, mice; conditions: for amyloid deposits in the hippocampus: 3×Tg AD mice (untreated: average of 4); for amyloid deposition in the hippocampus: WT mice
# Protocol: as §1, §2, §3
# Swiss 3T3 cells = assay: Immunofluorescence, cell morphology and bradykinin-mediated activation; type: cell-based; conditions: for changes to cell morphology: after 4 h of treatment, more drastic after six hours
# Protocol: Immunofluorescence: Serum-starved Swiss 3T3 cells were pretreated with compound for 2 h before the addition of bradykinin (100 ng/mL) for 20 min. Cells were fixed in 4% paraformaldehyde for 15 min at RT and stored in PBS. Fixed cells were treated with 0.5% Triton for 30 min at RT, 100 mM Glycine 30 min at RT, and 10% BSA for 30 min at 37° C. Primary antibody for GM130 (1:1000, BD Biosciences, Franklin Lakes, New Jersey, United States of America) was used to probe for 1 h at RT followed by CY3-conjugated secondary antibody (1:1000) for 1 h at RT in the dark. Actin was stained with fluorescein-conjugated phalloidin (1:300). Hoechst (1:2500) was used to stain the nuclei. Coverslips were mounted onto slides using antifade medium from Life Technologies (Carlsbad, California, United States of America). Images were taken with a Zeiss Axiovert S100 microscope (Carl Zeiss; Thornwood, New York, United States of America).
# Cdc42 = Cdc42 (Homo sapiens, UniProt P60953); assay: Rho-GEF IC50 assay (GEF/DH domain-mediated mant-GTP binding); type: biochemical; set-up: purchased Cytoskeleton Inc; conditions: read-out: IC50, GEF/DH domain-mediated mant-GTP binding/Cdc42 activation
# Protocol: Rho-GEF IC50 Assay: Rho-GEF assay (Cytoskeleton Inc., Denver, Colorado, United States of America) was conducted per manufacturer's instructions (λex=360 nm, λem=460 nm). Briefly, a solution (50 μL) of purified Rho GTPase (1 μM) and mant-GTP (1.5 μM) with or without compound (0.001-500 μM) was prepared and the absorbance monitored for 10-30 min to obtain the background/baseline. The addition of purified GEF/DH domain (0.08-0.2 μM) was carried out simultaneously and the absorbance was recorded for 30-45 min. The linear slope following the addition of the GEF was calculated and expressed as percentage of the control and plotted on an IC50 curve.
# Rac1 = molecular target: T1, Rac1 (Mus musculus, UniProt P63001); assay: G-LISA in serum-starved Swiss 3T3 cells; type: cell-based; conditions: 50 μM
# T1 construct: endogenous in cells; host or cells: Swiss 3T3 cells
# [3] = 1,2-Propanediol, 40%, 37° C., 1 hour
# [4] = Dimethyl Sulfoxide (DMSO), 37° C., 1 hour
# [5] = Pluronic F-68, 10%, 37° C., 1 hour
# [6] = Polyethylene Glycol300 (PEG-300), 30%, 37° C., 1 hour
# [7] = Dimethyl Sulfoxide (DMSO), RT-3 h
# [8] = Polyethylene Glycol300 (PEG-300), 30%, RT-3 h
# Chain of Cdc42 (P60953 whole entry, the tested form may be a part): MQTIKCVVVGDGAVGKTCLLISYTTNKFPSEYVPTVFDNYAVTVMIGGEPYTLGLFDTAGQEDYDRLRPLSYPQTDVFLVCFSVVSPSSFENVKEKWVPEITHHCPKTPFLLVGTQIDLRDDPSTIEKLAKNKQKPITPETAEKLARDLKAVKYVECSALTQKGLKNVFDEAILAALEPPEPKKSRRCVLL
smiles,measurement,setting,value
"O=S(=O)(Nc1ccccc1O)c1ccc2oc3ccc(S(=O)(=O)Nc4ccccc4O)cc3c2c1 [ZCL279, N^2,N^8-bis(2-hydroxyphenyl)dibenzo[b,d]furan-2,8-disulfonamide]","Average Number of Microglia per Microscope Field, CA1",microglia,13
same,"Average Number of Microglia per Microscope Field, CA2-3",microglia,10
same,"Average Number of Microglia per Microscope Field, DG",microglia,4
same,phosphorylation of microtubule-associated tau in the dentate gyrus,[1]; 3×Tg AD mice,not evident
same,phosphorylation of microtubule-associated tau in the dentate gyrus,[1]; WT mice,no evidence
same,Ratio (optical density solution/solvent alone),[2]; [3],2.359
same,optical density of solution,[2]; [3],0.092
same,Ratio (optical density solution/solvent alone),[2]; [4],1.071
same,optical density of solution,[2]; [4],0.045
same,Ratio (optical density solution/solvent alone),[2]; [5],2.667
same,optical density of solution,[2]; [5],0.104
same,Ratio (optical density solution/solvent alone),[2]; [6],3.762
same,optical density of solution,[2]; [6],0.158
same,Ratio (optical density solution/solvent alone),"[2]; Sesame Oil, 37° C., 1 hour",1.872
same,optical density of solution,"[2]; Sesame Oil, 37° C., 1 hour",0.088
same,Ratio (optical density solution/solvent alone),"[2]; Sterile Water, 37° C., 1 hour",6.158
same,optical density of solution,"[2]; Sterile Water, 37° C., 1 hour",0.234
same,Ratio (optical density solution/solvent alone),"[2]; Tween-80, 0.4%, 37° C., 1 hour",3.105
same,optical density of solution,"[2]; Tween-80, 0.4%, 37° C., 1 hour",0.118
same,Ratio (optical density solution/solvent alone),"[2]; dPBS, 37° C., 1 hour",3.846
same,optical density of solution,"[2]; dPBS, 37° C., 1 hour",0.15
same,solubility,[2],completely soluble
same,amyloid deposits in the hippocampus,amyloid deposits,no amyloid deposits
same,amyloid deposition in the hippocampus,amyloid deposits,No amyloid deposition
same,kind of morphology change,Swiss 3T3 cells; Swiss 3T3 cells,reduction in cell body size and formation of elongated processes
same,changes to cell morphology,Swiss 3T3 cells,significant changes to cell morphology
"Cc1cc(C)nc(NS(=O)(=O)c2ccc(NC(=S)NC(=O)COc3ccc(Br)cc3Cl)cc2)n1 [ZCL278, 4-(3-(2-(4-bromo-2-chloro-phenoxy)-acetyl)-thioureido)-N-(4,6-dimethylpyrimidin-2-yl)-benzenesulfonamide]","Average Number of Microglia per Microscope Field, CA1",microglia,12
same,"Average Number of Microglia per Microscope Field, CA2-3",microglia,10
same,"Average Number of Microglia per Microscope Field, DG",microglia,8
same,phosphorylation of microtubule-associated tau in the dentate gyrus,[1]; 3×Tg AD mice,not evident
same,phosphorylation of microtubule-associated tau in the dentate gyrus,[1]; WT mice,no evidence
same,Ratio (optical density solution/solvent alone),"[2]; 1,2-Propanediol, 40%, RT-3 h",3.154
same,optical density of solution,"[2]; 1,2-Propanediol, 40%, RT-3 h",0.123
same,Ratio (optical density solution/solvent alone),[2]; [7],1.119
same,optical density of solution,[2]; [7],0.047
same,Ratio (optical density solution/solvent alone),"[2]; Pluronic F-68, RT-3 h",2.675
same,optical density of solution,"[2]; Pluronic F-68, RT-3 h",0.107
same,Ratio (optical density solution/solvent alone),[2]; [8],2.275
same,optical density of solution,[2]; [8],0.091
same,Ratio (optical density solution/solvent alone),"[2]; Sesame Oil, RT-3 h",1.395
same,optical density of solution,"[2]; Sesame Oil, RT-3 h",0.06
same,Ratio (optical density solution/solvent alone),"[2]; Sterile Water, RT-3 h",2.211
same,optical density of solution,"[2]; Sterile Water, RT-3 h",0.084
same,Ratio (optical density solution/solvent alone),"[2]; Tween 80, 0.4%, RT-3 h",1.725
same,optical density of solution,"[2]; Tween 80, 0.4%, RT-3 h",0.069
same,Ratio (optical density solution/solvent alone),"[2]; dPBS, RT-3 h",1.795
same,optical density of solution,"[2]; dPBS, RT-3 h",0.07
same,solubility,[2],completely soluble
same,amyloid deposits in the hippocampus,amyloid deposits,no amyloid deposits
same,amyloid deposition in the hippocampus,amyloid deposits,No amyloid deposition
same,kind of morphology change,Swiss 3T3 cells; Swiss 3T3 cells,increase in ramification
same,bradykinin-mediated activation,"Swiss 3T3 cells; Swiss 3T3 cells, bradykinin 100 ng/mL",inhibit bradykinin-mediated activation
same,changes to cell morphology,Swiss 3T3 cells,significant changes to cell morphology
same,IC50,Cdc42,7.52 µM
same,effect on Rac1,Rac1,inhibits Rac1
